In US20250228858A1, “ANTI-CANCER COMBINATION THERAPY” (Boehringer Ingelheim International GmbH, priority 2023, published 2025):
Several values for one entry are separate records, joined by “and”; a condition that tells them apart may be missing. Equal values may be shown once.

Columns and labels:
Format in all cases: in vivo, NMRI-Foxn1^nu mice
[1] = test system: HER2-overexpressing human breast cancer cell line BT-474; assay: BT-474 orthotopic xenograft, zongertinib with T-DM1; conditions: for stable disease / Regressions >30% / TGI: day 42; for stable disease: number of tumors; for stable disease / mice that lost some weight and had to be euthanized: zongertinib 10 mg/kg qdx42, T-DM1 6 mg/kg q21dx2, monotherapies; for Regressions >30%: tumors regressed/total (partial response); for Regressions >30% / TGI: zongertinib 10 mg/kg qdx42 p.o., T-DM1 6 mg/kg q21dx2 i.v., alone or combined
Procedure: The study is performed in human breast cancer cell line BT-474 grown as orthotopic xenografts in NMRI-Foxn1^nu mice. Day 1 was the first day, day 42 the last day of treatment and final day of analysis.
BT-474 is obtained and cultured as described in Example 10 (see paragraph 10.1.2).
Tumors are established and randomized as described in Example 10 (see paragraph 10.14), except that mice are randomly distributed between the treatment and the vehicle control group (22 days after cell injection) when tumors are well established and have reached volumes of 84 to 310 mm^3.
Tumor volumes and side effects are monitored as described in Example 1 (see paragraph 1.1.6), except that control animals are sacrificed when the median tumor volume of the group reaches a size of approximately 710 mm^3.
The statistical evaluation of the tumor volume and the body weight is conducted on day 42 (last day of the study). Apart from this, statistical analysis was performed as described in Example 1 (see paragraph 1.1.7), with no evaluation of tumor growth after stop of treatment.

[2] = test system: HER2-overexpressing human breast cancer cell line SUM190PT; assay: SUM190PT subcutaneous xenograft, zongertinib with T-DM1; conditions: day 21, alone or combined; for stable disease: number of tumors out of 8, zongertinib 20 mg/kg qdx21, T-DM1 3 mg/kg q21dx1; for Regressions >30%: tumors regressed/total (partial response); for Regressions >30% / TGI: zongertinib 20 mg/kg qdx21 p.o., T-DM1 3 mg/kg q21dx1 i.v.
Procedure: The study is performed in human breast cancer cell line SUM190PT grown as subcutaneous xenografts in NMRI-Foxn1^nu mice. Day 1 was the first day, day 21 the last day of treatment and final day of analysis.
SUM190PT is a HER2-overexpressing human breast cancer cell line that can be obtained from Asterand Bioscience (BioIVT). Cells are cultured in T75, T175 and 5-Layer tissue culture flasks at 37° C. and 5% CO2. The medium used is ACL-4 (Thermo Fisher Scientific #041-95574M Custom Batch) supplemented with 0.5% bovine serum albumin (JHR 85-041-025), 0.02 mg/ml insulin (Sigma I5500), 0.01 mg/ml transferrin (Sigma T-2252), 25 nM sodium selenite (Sigma S9133), 50 nM Hydrocortisone (Sigma H-4001), 1 ng/ml Epidermal Growth Factor (unfiltered, Sigma E4127), 0.01 mM ethanolamine (Sigma E-0135), 0.01 mM phosphorylethanolamine (Medchem HY-N5034), 100 pM triiodothyronine (Sigma T5516), 0.5 mM sodium pyruvate (Sigma S8636) and 2 mM L-glutamine (Gibco 11539876). Cultures are split once weekly with a ratio of 1:2.
(§1) To establish subcutaneous tumors, SUM190PT cells are harvested by centrifugation, washed and resuspended in PBS+2.5% FCS+50% Matrigel (Corning #2165001) at 5×10^7 cells/ml. 100 μl cell suspension containing 5×10^6 cells is injected subcutaneously into the right flank of the mice (1 site per mouse). Mice are randomly distributed between the treatment and the vehicle control group (13 days after cell injection) when tumors are well established and have reached volumes of 100 to 180 mm^3.
Tumor volumes and side effects are monitored as described in Example 1 (see paragraph 1.1.6), except that control animals were analysed when the median tumor volume of the group reaches a size of approximately 700 mm^3.
The statistical evaluation of the tumor volume and the body weight is conducted on day 21 (last day of the study). Apart from this, statistical analysis was performed as described in Example 1 (see paragraph 1.1.7), with no evaluation of tumor growth after stop of treatment.

[3] = test system: HER2 Exon20^YVMA-mutant human non-small cell lung cancer (NSCLC) cell line PC-9_YVMA-5; assay: PC-9_YVMA-5 subcutaneous xenograft, zongertinib with T-DM1; conditions: alone or combined; for effect on tumor growth (median tumor volumes over time): T-DM1 5 mg/kg once weekly (q7d), zongertinib 5 mg/kg/day; for TGI: day 19; for TGI / tumors regressed completely / Regressions >30%: zongertinib 5 mg/kg bid, T-DM1 5 mg/kg q7d; for tumors regressed completely: number of tumors, 8 per group; for Regressions >30%: tumors regressed/total (Table 6, FIG. 6 waterfall day 24)
Procedure: The study is performed in human non-small cell lung cancer (NSCLC) cell line PC-9_YVMA-5 (PC-9 YVMA in short) grown as subcutaneous xenografts in NMRI-Foxn1^nu mice. Day 1 was the first day, day 21 the last day of treatment and day 24 the final day of analysis.
PC-9 is a non-small cell lung cancer cell line that can be obtained from the European Collection of Authenticated Cell Cultures (ECACC #90071810) and expresses an EGFR DEL19 mutation. To generate the PC-9_YVMA-5 clone driven by HER2 YVMA, parental PC-9 cells are ectopically transduced to express the HER2 YVMA isoform and the EGFR alleles (mutant and wild type) are deleted using CRISPR technology. Cells are cultured in T175 tissue culture flasks at 37° C. and 5% CO2. The medium used is RPMI 1640 supplemented with 10% FCS (Thermo Scientific #SH 30071.03), 0.5 μg/ml Puromycin (Gibco #A1113803) and 0.6 mg/ml Geneticin (Gibco #10131035). Cultures are split twice weekly with a ratio of 1:5-1:6.
as §1, with “tumors, PC-9_YVMA-5” for “tumors, SUM190PT”, “in PBS+5% FCS” for “in PBS+2.5% FCS+50% Matrigel (Corning #2165001)”, “group (12” for “group (13”, “of 90” for “of 100”, “to 149” for “to 180”
Mice in the control group are treated with vehicle, i.e.: • (i) 0.5% Natrosol, administered twice daily for the duration of the treatment intragastrally by gavage needle with a volume of 10 ml/kg body weight; and • (ii) saline (0.9%), administered once weekly intravenously into the tail vein with a volume of 5 ml/kg.
Tumor volumes and side effects are monitored as described in Example 1 (see paragraph 1.1.6), except that control animals are sacrificed when the median tumor volume of the group reaches a size of approximately 370 mm^3.
The statistical evaluation of the tumor volume and the body weight is conducted on day 19 (last day of the controls). Apart from this, statistical analysis was performed as described in Example 1 (see paragraph 1.1.7), with no evaluation of tumor growth after stop of treatment.

Molecule | stable disease [1] | Regressions >30% [1] | Regressions >30% ([1]; listed as zongertinib) | TGI [1] [%] | mice that lost some weight and had to be euthanized [1] | stable disease [2] | Regressions >30% [2] | TGI [2] [%] | effect on tumor growth (median tumor volumes over time) [3] | TGI [3] [%] | tumors regressed completely [3] | Regressions >30% [3] | Regressions >30% ([3]; listed as zongertinib)
C=CC(=O)NC1CCN(c2ncc3ncnc(Nc4ccc(Oc5ccc6c(c5)ncn6C)c(C)c4)c3n2)CC1 [Zongertinib, N-{1-[8-({3-methyl-4-[(1-methyl-1H-1,3-benzodiazol-5-yl)oxy]phenyl}amino)-[1,3]diazino [5,4-d]pyrimidin-2-yl]piperidin-4-yl}prop-2-enamide] | no stable disease | 0/7 | no partial responses | 86 | 1 out of 8 | no stable disease | 0/8 | 64 | abolished tumor growth | 110 | none | 4/8 | 4
trastuzumab emtansine [T-DM1, reference compound] | 3 | 1 and 1/5 |  | 85 | 2 out of 8 | 3 | 0/8 | 90 | abolished tumor growth | 112 | none | 4 and 4/8 | 
